Experimental data published in US8497380B2, “Substituted acetophenones useful as PDE4 inhibitors” (Leo Pharma A/S, priority 2006, dated 2013).
pIC50: −log10 of the molar value.

tested on: Human peripheral blood mononuclear cells (PBMC); test: TNFalfa-Release; type: cell-based; details: inhibition of TNF-a secretion, PBMC pre-incubated 30 minutes, stimulated 18 hours with lipopolysaccharide
Outline: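 Buffy-coat PBMC at 5×105 c/ml in RPMI1640 with 2% FCS were pre-incubated 30 min with compound, then stimulated 18 h with LPS 1 mg/ml. Supernatant TNF-a measured by enzyme immunoassay; pIC50 from inhibition curves relative to LPS-stimulated and unstimulated wells.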

Q: `C=CCOc1c(OC)ccc(C(=O)Cc2c(Cl)cncc2Cl)c1OCc1ccccc1C#N` [Compound 267, 2-{2-Allyloxy-6-[2-(3,5-dichloro-pyridin-4-yl)-acetyl]-3-methoxy-phenoxymethyl}-benzonitrile] was tested. Which pIC50 did it give?
A: Its pIC50 is greater than 6.00.

Q: How did the pIC50 turn out when `CCOC(=O)CCCOc1c(C(=O)Cc2c(Cl)cncc2Cl)ccc(OC)c1OC` [Compound 142, 4-{6-[2-(3,5-Dichloro-pyridin-4-yl)-acetyl]-2,3-dimethoxy-phenoxy}-butyric acid ethyl ester] was run?
A: The pIC50 was greater than 6.00.

Q: How did the pIC50 turn out when `COc1ccc(C(=O)Cc2c(Cl)cncc2Cl)c(OCCCOc2ccccc2)c1OC` [Compound 145, 2-(3,5-Dichloro-pyridin-4-yl)-1-[3,4-dimethoxy-2-(3-phenoxy-propoxy)-phenyl]-ethanone] was run?
A: Its pIC50 is greater than 6.00.

Q: How did the pIC50 turn out when `COc1ccc(C(=O)Cc2c(Cl)cncc2Cl)c(OCC=C(C)C)c1OC` [Compound 111, 2-(3,5-Dichloro-pyridin-4-yl)-1-[3,4-dimethoxy-2-(3-methyl-but-2-enyloxy)-phenyl]-ethanone] was run?
A: Its pIC50 is greater than 6.00.

Q: With `COc1ccc(C(=O)Cc2c(Cl)cncc2Cl)c(OCC(=O)OCc2ccccc2)c1OC` [Compound 132, {6-[2-(3,5-Dichloro-pyridin-4-yl)-acetyl]-2,3-dimethoxy-phenoxy}-acetic acid benzyl ester] as the molecule, how does the pIC50 read?
A: Its pIC50 is greater than 6.00.

Q: With `COc1cccc(CNC(=O)COc2c(C(=O)Cc3c(Cl)cncc3Cl)ccc(OC)c2OC)c1` [Compound 216, 2-{6-[2-(3,5-Dichloro-pyridin-4-yl)-acetyl]-2,3-dimethoxy-phenoxy}-N-(3-methoxy-benzyl)-acetamide] as the molecule, how does the pIC50 read?
A: The pIC50 was greater than 6.00.

Q: With `COc1ccc(C(=O)Cc2c(Cl)cncc2Cl)c(OCC(=O)OC(C)C)c1OC` [Compound 133, {6-[2-(3,5-Dichloro-pyridin-4-yl)-acetyl]-2,3-dimethoxy-phenoxy}-acetic acid isopropyl ester] as the molecule, how does the pIC50 read?
A: Its pIC50 is greater than 6.00.

Q: `COc1ccc(C(=O)Cc2c(Cl)cncc2Cl)c(OCC(=O)NCCOc2ccccc2)c1OC` [Compound 231, 2-{6-[2-(3,5-Dichloro-pyridin-4-yl)-acetyl]-2,3-dimethoxy-phenoxy}-N-(2-phenoxy-ethyl)-acetamide] was tested. Which pIC50 did it give?
A: Its pIC50 is greater than 6.00.

Q: `COc1ccc(C(=O)Cc2c(Cl)cncc2Cl)c(OCC(=O)NCCOCCO)c1OC` [Compound 258, 2-{6-[2-(3,5-Dichloro-pyridin-4-yl)-acetyl]-2,3-dimethoxy-phenoxy}-N-[2-(2-hydroxy-ethoxy)-ethyl]-acetamide] was tested. Which pIC50 did it give?
A: Its pIC50 is greater than 6.00.

Q: With `CCOC(=O)CCCCOc1c(C(=O)Cc2c(Cl)cncc2Cl)ccc(OC)c1OC` [Compound 182, 5-{6-[2-(3,5-Dichloro-pyridin-4-yl)-acetyl]-2,3-dimethoxy-phenoxy}-pentanoic acid ethyl ester] as the molecule, how does the pIC50 read?
A: The pIC50 was greater than 6.00.

Q: With `COc1ccc(C(=O)Cc2c(Cl)cncc2Cl)c(OCC(C)c2ccccc2)c1OC` (stereo not drawn) [Compound 284, 2-(3,5-Dichloro-pyridin-4-yl)-1-[3,4-dimethoxy-2-(2-phenyl-propoxy)-phenyl]-ethanone] as the molecule, how does the pIC50 read?
A: The pIC50 was greater than 6.00.

Q: `COc1ccc(C(=O)Cc2c(Cl)cncc2Cl)c(O)c1OC` [Compound 101, 2-(3,5-Dichloro-pyridin-4-yl)-1-(2-hydroxy-3,4-dimethoxy-phenyl)-ethanone] was tested. Which pIC50 did it give?
A: The pIC50 was greater than 6.00.

Q: `C=CCCCOc1c(C(=O)Cc2c(Cl)cncc2Cl)ccc(OC)c1OC` [Compound 138, 2-(3,5-Dichloro-pyridin-4-yl)-1-(3,4-dimethoxy-2-pent-4-enyloxy-phenyl)-ethanone] was tested. Which pIC50 did it give?
A: Its pIC50 is greater than 6.00.

Q: With `C=CCCOc1c(C(=O)Cc2c(Cl)cncc2Cl)ccc(OC)c1OC` [Compound 137, 1-(2-But-3-enyloxy-3,4-dimethoxy-phenyl)-2-(3,5-dichloro-pyridin-4-yl)-ethanone] as the molecule, how does the pIC50 read?
A: Its pIC50 is greater than 6.00.

Q: `COc1ccc(C(=O)Cc2c(Cl)cncc2Cl)c(OCC(=O)NC[C@@H](O)c2ccccc2)c1OC` [Compound 253, (S)-2-{6-[2-(3,5-Dichloro-pyridin-4-yl)-acetyl]-2,3-dimethoxy-phenoxy}-N-(2-hydroxy-2-phenyl-ethyl)-acetamide] was tested. Which pIC50 did it give?
A: The pIC50 was greater than 6.00.
